# Patent US20260116868A1 (Arcus Biosciences, Inc., priority 2023, published 2026)
# Biological target: T1, Cbl-b (Homo sapiens, UniProt Q13191)
# T1 construct: biotin (biotinylated protein)
# Assay: Cbl-b probe displacement HTRF binding assay
# Conditions: 0.4 nM Cbl-b, 150 nM BODIPY probe
# Method in brief: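 Compound competes with BODIPY probe (150 nM) for biotinylated Cbl-b (0.4 nM) in HEPES/NaCl/Triton/TCEP/BSA buffer; 60 min preincubation, 15 min with probe, room temperature. Tb-streptavidin HTRF read; % displacement vs DMSO and no-protein controls, IC50 from four-parameter fit.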
# T1 sequence (Q13191 whole entry, species assumed): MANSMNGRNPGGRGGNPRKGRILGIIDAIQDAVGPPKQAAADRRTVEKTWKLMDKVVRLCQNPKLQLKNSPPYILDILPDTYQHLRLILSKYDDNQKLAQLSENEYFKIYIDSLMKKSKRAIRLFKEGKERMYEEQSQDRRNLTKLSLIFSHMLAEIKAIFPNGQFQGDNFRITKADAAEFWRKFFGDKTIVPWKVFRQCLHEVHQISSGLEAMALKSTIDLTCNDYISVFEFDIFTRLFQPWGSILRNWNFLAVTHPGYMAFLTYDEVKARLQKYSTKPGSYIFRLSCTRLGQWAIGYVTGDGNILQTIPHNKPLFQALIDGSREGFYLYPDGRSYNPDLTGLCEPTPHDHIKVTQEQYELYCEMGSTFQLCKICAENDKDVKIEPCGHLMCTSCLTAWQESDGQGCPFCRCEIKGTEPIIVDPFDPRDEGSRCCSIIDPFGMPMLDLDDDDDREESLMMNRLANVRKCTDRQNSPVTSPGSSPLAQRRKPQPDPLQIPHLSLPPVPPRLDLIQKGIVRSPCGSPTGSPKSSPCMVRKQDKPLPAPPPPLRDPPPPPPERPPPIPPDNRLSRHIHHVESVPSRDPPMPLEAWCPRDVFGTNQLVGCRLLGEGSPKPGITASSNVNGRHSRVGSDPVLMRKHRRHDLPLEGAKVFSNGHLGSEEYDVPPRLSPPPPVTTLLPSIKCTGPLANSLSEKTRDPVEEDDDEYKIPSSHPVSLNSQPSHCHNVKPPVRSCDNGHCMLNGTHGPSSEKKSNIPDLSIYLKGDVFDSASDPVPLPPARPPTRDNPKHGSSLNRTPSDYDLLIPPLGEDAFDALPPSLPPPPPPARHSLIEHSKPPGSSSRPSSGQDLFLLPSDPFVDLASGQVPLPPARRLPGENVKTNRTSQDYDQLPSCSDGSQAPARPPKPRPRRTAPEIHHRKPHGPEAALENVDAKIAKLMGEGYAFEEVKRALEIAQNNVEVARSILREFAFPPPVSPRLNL
row,Compound,IC50
1,CC(C)Nc1cc(-c2ccc(OC(F)F)cc2C(=O)N2CC(F)C2)cc(NC(=O)c2cc(CNC[C@@H]3CCCO3)cn(C)c2=O)n1 [Example 299],< 0.1 µM
2,CC(C)CNCc1cc(C(=O)Nc2cc(-c3ccc(C#N)cc3C(=O)N3CC(F)(F)C3)cc(OC(C)C)n2)c(=O)n(C)c1 [Example 211],< 0.1 µM
3,CCNc1cc(-c2ccc(OC(F)F)cc2C(=O)N2CC(F)C2)cc(NC(=O)c2cc(CNC[C@@H]3CCCO3)cn(C)c2=O)n1 [Example 316],< 0.1 µM
4,"CC(C)Oc1cc(-c2ccc(F)cc2C(=O)N2CC(F)(F)C2)cc(NC(=O)c2cc(CNC[C@@H]3CCCO3)cn(C3CC3)c2=O)n1 [Example 138, N-(4-{2-[(3,3-difluoro-1-azetidinyl)carbonyl]-4-fluorophenyl}-6-isopropoxy-2-pyridyl)-1-cyclopropyl-2-oxo-5-[({[(S)-perhydro-2-furyl]methyl}amino)methyl]-1,2-dihydronicotinamide]",< 0.1 µM
5,"CO[C@@H](C)CNCc1cc(C(=O)Nc2cc(-c3ccc(Cl)cc3C(=O)N3CC4(COC4)C3)cc(C3CC3)n2)c(=O)n(C2CC2)c1 [Example 160, N-(4-{4-Chloro-2-[(2-oxa-6-aza-6-spiro[3.3]heptyl)carbonyl]phenyl}-6-cyclopropyl-2-pyridyl)-1-cyclopropyl-5-{[(S)-2-methoxypropylamino]methyl}-2-oxo-1,2-dihydronicotinamide]",< 0.1 µM
6,CO[C@@H](C)CNCc1cc(C(=O)Nc2cc(-c3ccc(F)cc3C(=O)N3CC(F)(F)C3)cc(C3CC3)c2)c(=O)n(C2CC2)c1 [Example 396],< 0.1 µM
7,CC(C)Oc1cc(-c2ccc(C#N)cc2C(=O)N2CC(F)(F)C2)cc(NC(=O)c2cc(CNCC3(F)CCC3)cn(C3CC3)c2=O)n1 [Example 141],< 0.1 µM
8,"CCOc1cc(-c2ccc(Cl)cc2C(=O)N2CC(F)(F)C2)cc(NC(=O)c2cc(CN[C@@H](C)C3CCC3)cn(C3CC3)c2=O)n1 [Example 122, N-(4-{4-chloro-2-[(3,3-difluoro-1-azetidinyl)carbonyl]phenyl}-6-ethoxy-2-pyridyl)-5-{[(S)-1-cyclobutylethylamino]methyl}-1-cyclopropyl-2-oxo-1,2-dihydronicotinamide]",< 0.1 µM
9,CC(C)Nc1cc(-c2c(F)cc(Cl)cc2C(=O)N2CC(F)(F)C2)cc(NC(=O)c2cc(CN[C@@H](C)C3CCC3)cn(C3CC3)c2=O)n1 [Example 200],< 0.1 µM
10,"O=C(Nc1cc(-c2c(F)cc(Cl)cc2C(=O)N2CC(F)(F)C2)cc(C2CC2)n1)c1cc(CNCC2CC2)cn(C2CC2)c1=O [Example 148, N-(4-{4-chloro-2-[(3,3-difluoro-1-azetidinyl)carbonyl]-6-fluorophenyl}-6-cyclopropyl-2-pyridyl)-1-cyclopropyl-5-{[(cyclopropylmethyl)amino]methyl}-2-oxo-1,2-dihydronicotinamide]",< 0.1 µM
11,CCOc1cc(-c2ccc(C#N)cc2C(=O)N2CC(F)(F)C2)cc(NC(=O)c2cc(CNCCOC)cn(C3CC3)c2=O)n1 [Example 345],< 0.1 µM
12,CCOc1cc(-c2ccc(C#N)cc2C(=O)N2CC(F)(F)C2)cc(NC(=O)c2cc(CN[C@@H](C)C3CCC3)cn(C3CC3)c2=O)n1 [Example 196],< 0.1 µM
13,CO[C@@H](C)[C@H](C)NCc1cc(C(=O)Nc2cc(-c3c(F)cc(C#N)cc3C(=O)N3CC(F)(F)C3)cc(OC(C)C)n2)c(=O)n(C2CC2)c1 [Example 222],< 0.1 µM
14,CC(C)CNCc1cc(C(=O)Nc2cc(-c3ccc(C#N)cc3C(=O)N3CC(F)(F)C3)cc(C3CC3)n2)c(=O)n(C2CC2)c1 [Example 356],< 0.1 µM
15,CCn1cc(CNC[C@H](C)OC)cc(C(=O)Nc2cc(-c3ccc(C#N)cc3C(=O)N3CC(F)(F)C3)cc(C3CC3)n2)c1=O [Example 170],< 0.1 µM
16,"O=C(Nc1cc(-c2ccc(Cl)cc2C(=O)N2CC(F)(F)C2)cc(C2CC2)n1)c1cc(CNC[C@@H]2COCCO2)cn(C2CC2)c1=O [Example 133, N-(4-{4-chloro-2-[(3,3-difluoro-1-azetidinyl)carbonyl]phenyl}-6-cyclopropyl-2-pyridyl)-1-cyclopropyl-5-[({[(R)-1,4-dioxan-2-yl]methyl}amino)methyl]-2-oxo-1,2-dihydronicotinamide]",< 0.1 µM

# Next, values leading:
row,IC50,Compound
1,< 0.1 µM,CC(C)[C@H](C)NCc1cc(C(=O)Nc2cc(-c3ccc(Cl)cc3C(=O)N3CC(F)(F)C3)cc(C3CC3)n2)c(=O)n(C2CC2)c1 [Example 395]
2,< 0.1 µM,N#Cc1cc(F)c(-c2cc(NC(=O)c3cc(CNC[C@@H]4CCCO4)cn(C4CC4)c3=O)nc(C3CC3)c2)c(C(=O)N2CC(F)(F)C2)c1 [Example 231]
3,< 0.1 µM,"O=C(Nc1cc(-c2c(F)cc(Cl)cc2C(=O)N2CC(F)(F)C2)cc(C2CC2)n1)c1cc(CNC[C@@H]2CCCCO2)cn(C2CC2)c1=O [Example 146, N-(4-{4-chloro-2-[(3,3-difluoro-1-azetidinyl)carbonyl]-6-fluorophenyl}-6-cyclopropyl-2-pyridyl)-1-cyclopropyl-2-oxo-5-[({[(S)-tetrahydro-2H-pyran-2-yl]methyl}amino)methyl]-1,2-dihydronicotinamide]"
4,< 0.1 µM,CO[C@@H](C)CNCc1cc(C(=O)Nc2cc(-c3ccc(Cl)cc3C(=O)N3CC(F)(F)C3)cc(C3CC3)n2)c(=O)n(C2CC2)c1 [Example 353]
5,< 0.1 µM,"CO[C@@H](C)CNCc1cc(C(=O)Nc2cc(-c3ccc(OC(F)F)cc3C(=O)N3CC(F)(F)C3)cc(Cl)n2)c(=O)n(C2CC2)c1 [Example 149, N-(6-chloro-4-{2-[(3,3-difluoro-1-azetidinyl)carbonyl]-4-difluoromethoxyphenyl}-2-pyridyl)-1-cyclopropyl-5-{[(S)-2-methoxypropylamino]methyl}-2-oxo-1,2-dihydronicotinamide]"
6,< 0.1 µM,C[C@H]1CCCN(Cc2cc(C(=O)Nc3cc(-c4ccc(C#N)cc4C(=O)N4CC(F)(F)C4)cc(C4CC4)n3)c(=O)n(C3CC3)c2)C1 [Example 399]
7,< 0.1 µM,N#Cc1ccc(-c2cc(NC(=O)c3cc(CNC[C@@H]4CCCCO4)cn(C4CC4)c3=O)nc(C3CC3)c2)c(C(=O)N2CC(F)(F)C2)c1 [Example 366]
8,< 0.1 µM,CO[C@@H](C)CNCc1cc(C(=O)Nc2cc(-c3ccc(C)cc3C(=O)N3CC(F)(F)C3)cc(C3CC3)n2)c(=O)n(C2CC2)c1 [Example 273]
9,< 0.1 µM,Cc1ccc(-c2cc(NC(=O)c3cc(CNC[C@@H]4CCCO4)cn(C)c3=O)nc(OC(C)C)c2)c(C(=O)N2CC(F)C2)c1 [Example 320]
10,< 0.1 µM,"Cn1cc(CNC[C@@H]2CCCCO2)cc(C(=O)Nc2cc(-c3ccc(Cl)cc3C(=O)N3CC(F)(F)C3)cc(C3CC3)n2)c1=O [Example 108, N-[4-[4-chloro-2-(3,3-difluoroazetidine-1-carbonyl)phenyl]-6-cyclopropylpyridin-2-yl]-1-methyl-5-[[[(2S)-oxan-2-yl]methylamino]methyl]-2-oxopyridine-3-carboxamide]"
11,< 0.1 µM,C[C@H](NCc1cc(C(=O)Nc2cc(-c3ccc(C#N)cc3C(=O)N3CC(F)(F)C3)cc(C3CC3)n2)c(=O)n(C2CC2)c1)C1CCCO1 (some centres unmarked) [Example 376]
12,< 0.1 µM,COc1ccc(-c2cc(NC(=O)c3cc(CN[C@@H](C)C4CCC4)cn(C4CC4)c3=O)nc(OCC(F)F)c2)c(C(=O)N2CC(F)(F)C2)c1 [Example 343]
13,< 0.1 µM,CO[C@@H](C)CNCc1cc(C(=O)Nc2cc(-c3ccc(Cl)cc3C(=O)N3CC(F)(F)C3)cc(OCC(F)F)n2)c(=O)n(C2CC2)c1 [Example 162]
